Experimental data as given in ChEMBL document CHEMBL5236598, “Lead Optimization and Avoidance of Metabolic-perturbing Motif Developing Novel Diarylpyrimidines as Potent HIV-1 NNRTIs” (J Med Chem, 2022).

Columns and labels:
[1] = Selectivity index, ratio of CC50 for cytotoxicity against human MT4 cells to EC50 for antiviral activity against HIV-1 RES056 harboring RT K103N/Y181C double mutant infected in human MT4 cells; format: toxicity, cell-based; conditions: read-out: Ratio CC50/EC50
[2] = Cytotoxicity against human MT4 cells assessed as reduction in cell viability measured after 5 days by MTT assay; format: toxicity, cell-based; conditions: time 5 day
[3] = test system: Human immunodeficiency virus 1; assay: Antiviral activity against HIV-1 harboring RT L100I mutant infected in human MT4 cells assessed as protection against virus-induced cytopathic effect incubated for 5 days by MTT assay; format: functional, organism-based; conditions: Human immunodeficiency virus 1, MT4, 120 h
[4] = test system: Human immunodeficiency virus 1; assay: Antiviral activity against HIV-1 RES056 harboring RT K103N/Y181C double mutant infected in human MT4 cells assessed as protection against virus-induced cytopathic effect incubated for 5 days by MTT assay; format: functional, organism-based; conditions: Human immunodeficiency virus 1, RES056, MT4, 120 h
[5] = test system: Human immunodeficiency virus 1; assay: Antiviral activity against wild type HIV-1 IIIB infected in human MT4 cells assessed as protection against virus-induced cytopathic effect incubated for 5 days by MTT assay; format: functional, organism-based; conditions: Human immunodeficiency virus 1, IIIB, MT4, 120 h
[6] = test system: Human immunodeficiency virus 1; assay: Antiviral activity against HIV-1 harboring RT E138K mutant infected in human MT4 cells assessed as protection against virus-induced cytopathic effect incubated for 5 days by MTT assay; format: functional, organism-based; conditions: Human immunodeficiency virus 1, MT4, 120 h
[7] = test system: Human immunodeficiency virus 1; assay: Antiviral activity against HIV-1 harboring RT K103N mutant infected in human MT4 cells assessed as protection against virus-induced cytopathic effect incubated for 5 days by MTT assay; format: functional, organism-based; conditions: Human immunodeficiency virus 1, MT4, 120 h
[8] = test system: Human immunodeficiency virus 1; assay: Potency index, ratio of Etravirine EC50 to test compound EC50 for antiviral activity against HIV-1 harboring RT K103N mutant infected in human MT4 cells assessed as protection against virus-induced cytopathic effect incubated for 5 days by MTT assay; format: functional; conditions: time 5 day
[9] = target: Human immunodeficiency virus type 1 reverse transcriptase (Human immunodeficiency virus 1, UniProt Q72547); assay: Inhibition of wild type recombinant HIV-1 reverse transcriptase using biotin-labelled dNTPs as substrate assessed as inhibition of biotin-labelled UTP incorporation incubated for 1 hr by ELISA
[10] = test system: Human immunodeficiency virus 1; assay: Antiviral activity against HIV-1 harboring RT F227L/V106A double mutant infected in human MT4 cells assessed as protection against virus-induced cytopathic effect incubated for 5 days by MTT assay; format: functional, organism-based; conditions: Human immunodeficiency virus 1, MT4, 120 h
[11] = test system: Human immunodeficiency virus 1; assay: Antiviral activity against HIV-1 harboring RT Y181C mutant infected in human MT4 cells assessed as protection against virus-induced cytopathic effect incubated for 5 days by MTT assay; format: functional, organism-based; conditions: Human immunodeficiency virus 1, MT4, 120 h
[12] = test system: Human immunodeficiency virus 1; assay: Antiviral activity against HIV-1 harboring RT Y188L mutant infected in human MT4 cells assessed as protection against virus-induced cytopathic effect incubated for 5 days by MTT assay; format: functional, organism-based; conditions: Human immunodeficiency virus 1, MT4, 120 h
[13] = test system: Human immunodeficiency virus 1; assay: Potency index, ratio of Etravirine EC50 to test compound EC50 for antiviral activity against HIV-1 harboring RT E138K mutant infected in human MT4 cells assessed as protection against virus-induced cytopathic effect incubated for 5 days by MTT assay; format: functional; conditions: time 5 day
[14] = Selectivity index, ratio of CC50 for cytotoxicity against human MT4 cells to EC50 for antiviral activity against wild type HIV-1 IIIB infected in human MT4 cells; format: toxicity, cell-based; conditions: read-out: Ratio CC50/EC50

N#C/C=C/c1cc(F)c(Oc2nc(Nc3ccc(C#N)nc3)nc3ccsc23)c(F)c1
selectivity ratio [1]: 22
CC50 at 120 h [2]: 47.5 µM
EC50 [3]: 0.0192 µM
EC50 [4]: 2.19 µM
EC50 [5]: 0.00179 µM
EC50 [6]: 0.00746 µM
EC50 [7]: 0.00255 µM
Ratio EC50 [8]: 2
IC50 [9]: 0.04 µM
EC50 [10]: 1.45 µM
EC50 [11]: 0.0665 µM
EC50 [12]: > 47.5 µM
Ratio EC50 [13]: 2
selectivity ratio [14]: 26500

Cc1cc(C#N)cc(C)c1Oc1nc(Nc2ccc(C#N)cc2)nc(N)c1Br [ETRAVIRINE]
CC50 at 120 h [2]: > 4.61 µM
EC50 [4]: 0.0762 µM
EC50 [5]: 0.0033 µM
EC50 [6]: 0.0181 µM
EC50 [7]: 0.0043 µM
EC50 [10]: 0.0254 µM
EC50 [12]: 0.0251 µM

Cc1cc(/C=C/C#N)cc(C)c1Oc1nc(Nc2ccc(C#N)nc2)nc2c1COC2
selectivity ratio [1]: 2980
CC50 at 120 h [2]: 213 µM
EC50 [3]: 0.00664 µM
EC50 [4]: 0.0717 µM
EC50 [5]: 0.0024 µM
EC50 [6]: 0.00323 µM
EC50 [7]: 0.00134 µM
IC50 [9]: 0.04 µM
EC50 [10]: 0.11 µM
EC50 [11]: 0.00975 µM
EC50 [12]: 0.0446 µM
selectivity ratio [14]: 88900

N#C/C=C/c1cc(F)c(Oc2nc(Nc3ccc(C#N)c(F)c3)nc3c2COC3)c(F)c1
selectivity ratio [1]: 773
CC50 at 120 h [2]: 243 µM
EC50 [3]: 0.0069 µM
EC50 [4]: 0.314 µM
EC50 [5]: 0.00167 µM
EC50 [6]: 0.00345 µM
EC50 [7]: 0.00241 µM
IC50 [9]: 0.03 µM
EC50 [10]: 0.384 µM
EC50 [11]: 0.0139 µM
EC50 [12]: 0.214 µM
selectivity ratio [14]: 145000
